From PubChem BioAssay AID1963986 (Molecular Pharmacology Branch, DTP, NCI, 2024)
pIC50: −log10 of the molar value. One block for each compound: values may come before it.

System: 171881-019-R-J1-PDC tumor spheroid viability
Assay: Anticancer human tumor 171881-019-R-J1-PDC patient-derived invasive breast carcinoma cell line growth inhibition [PI3K]
Conditions: spheroids with HUVEC and MSC; for pIC50: curve of first compound; for viability, T/C: stronger effect = lower value
Outline: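 High-throughput combination screen: PI3K inhibitors crossed with targeted small molecules on complex spheroids of tumor cells, HUVEC and MSCs at 37 degrees C, 5% CO2. Top concentration was at or near clinical Cmax (otherwise 10 microM), with half-log decrements.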

[1] = second compound 0.0316 µM, first compound 0.0316 µM
[2] = second compound 0.0316 µM, first compound 0.1 µM
[3] = second compound 0.0316 µM, first compound 0.316 µM
[4] = second compound 0.0316 µM, first compound 1 µM
[5] = second compound 0.0316 µM, first compound 3.16 µM
[6] = second compound 0.0316 µM, first compound 10 µM
[7] = second compound 0.1 µM, first compound 0.0316 µM
[8] = second compound 0.1 µM, first compound 0.1 µM
[9] = second compound 0.1 µM, first compound 0.316 µM
[10] = second compound 0.1 µM, first compound 1 µM
[11] = second compound 0.1 µM, first compound 3.16 µM
[12] = second compound 0.1 µM, first compound 10 µM
[13] = second compound 0.316 µM, first compound 0.0316 µM
[14] = second compound 0.316 µM, first compound 0.1 µM
[15] = second compound 0.316 µM, first compound 0.316 µM
[16] = second compound 0.316 µM, first compound 1 µM
[17] = second compound 0.316 µM, first compound 3.16 µM
[18] = second compound 0.316 µM, first compound 10 µM
[19] = second compound 1 µM, first compound 0.0316 µM
[20] = second compound 1 µM, first compound 0.1 µM
[21] = second compound 1 µM, first compound 0.316 µM
[22] = second compound 1 µM, first compound 1 µM
[23] = second compound 1 µM, first compound 3.16 µM
[24] = second compound 1 µM, first compound 10 µM
[25] = second compound 3.16 µM, first compound 0.0316 µM
[26] = second compound 3.16 µM, first compound 0.1 µM
[27] = second compound 3.16 µM, first compound 0.316 µM
[28] = second compound 3.16 µM, first compound 1 µM
[29] = second compound 3.16 µM, first compound 3.16 µM
[30] = second compound 3.16 µM, first compound 10 µM
[31] = second compound 10 µM, first compound 0.0316 µM
[32] = second compound 10 µM, first compound 0.1 µM
[33] = second compound 10 µM, first compound 0.316 µM
[34] = second compound 10 µM, first compound 1 µM
[35] = second compound 10 µM, first compound 3.16 µM
[36] = second compound 10 µM, first compound 10 µM
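Also: spheroids exposed to compound for 7 days before viability read.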
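For viability, T/C in this document: 100% = DMSO vehicle-treated spheroids.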

- pIC50 (second compound 0.00316 µM): 5.04
- pIC50 (second compound 0.01 µM): 5.14
- pIC50 (second compound 0.0316 µM): 5.40
- pIC50 (second compound 0.1 µM): > 7.50
- pIC50 (second compound 0.316 µM): > 7.50
- pIC50 (second compound 1 µM): > 7.50
Structure (SMILES): C=CC(=O)N1CCN(c2nc(=O)n(-c3c(C)ccnc3C(C)C)c3nc(-c4c(O)cccc4F)c(F)cc23)C(C)C1 (stereo unspecified) + CC(Nc1ccc2c(c1)OCCn1cc(N3C(=O)OCC3C(F)F)nc1-2)C(N)=O
- viability, T/C (second compound 0.00316 µM, first compound 0.0316 µM): 96.8%
- viability, T/C (second compound 0.00316 µM, first compound 0.1 µM): 90.1%
- viability, T/C (second compound 0.00316 µM, first compound 0.316 µM): 92.8%
- viability, T/C (second compound 0.00316 µM, first compound 1 µM): 93.1%
- viability, T/C (second compound 0.00316 µM, first compound 3.16 µM): 88.5%
- viability, T/C (second compound 0.00316 µM, first compound 10 µM): 46.6%
- viability, T/C (second compound 0.01 µM, first compound 0.0316 µM): 79.5%
- viability, T/C (second compound 0.01 µM, first compound 0.1 µM): 84.9%
- viability, T/C (second compound 0.01 µM, first compound 0.316 µM): 78.5%
- viability, T/C (second compound 0.01 µM, first compound 1 µM): 84.6%
- viability, T/C (second compound 0.01 µM, first compound 3.16 µM): 79%
- viability, T/C (second compound 0.01 µM, first compound 10 µM): 39.1%
- viability, T/C [1]: 52.7%
- viability, T/C [2]: 56.2%
- viability, T/C [3]: 52.1%
- viability, T/C [4]: 57.7%
- viability, T/C [5]: 54.7%
- viability, T/C [6]: 31.7%
- viability, T/C [7]: 37.6%
- viability, T/C [8]: 37.8%
- viability, T/C [9]: 40.2%
- viability, T/C [10]: 36.3%
- viability, T/C [11]: 39.2%
- viability, T/C [12]: 22.1%
- viability, T/C [13]: 26.1%
- viability, T/C [14]: 29.2%
- viability, T/C [15]: 27.8%
- viability, T/C [16]: 30%
- viability, T/C [17]: 26.7%
- viability, T/C [18]: 12.6%
- viability, T/C [19]: 20.2%
- viability, T/C [20]: 21.7%
- viability, T/C [21]: 20.7%
- viability, T/C [22]: 22.6%
- viability, T/C [23]: 20.7%
- viability, T/C [24]: 10.7%

- pIC50 (second compound 0.0316 µM): 6.60
- pIC50 (second compound 0.1 µM): 6.94
- pIC50 (second compound 0.316 µM): > 7.50
- pIC50 (second compound 1 µM): > 7.50
- pIC50 (second compound 3.16 µM): > 7.50
- pIC50 (second compound 10 µM): > 7.50
Structure (SMILES): C#Cc1c(F)ccc2cc(O)cc(-c3ncc4c(N5CC6CCC(C5)N6)nc(OCC56CCCN5CC(F)C6)nc4c3F)c12 (stereo unspecified) + Cc1nc(NC(=O)N2CCCC2C(N)=O)sc1-c1ccnc(C(C)(C)C(F)(F)F)c1
- viability, T/C [1]: 88.3%
- viability, T/C [2]: 66.7%
- viability, T/C [3]: 44.4%
- viability, T/C [4]: 32.9%
- viability, T/C [5]: 27.4%
- viability, T/C [6]: 20%
- viability, T/C [7]: 72.3%
- viability, T/C [8]: 51.2%
- viability, T/C [9]: 37.7%
- viability, T/C [10]: 26.1%
- viability, T/C [11]: 20.8%
- viability, T/C [12]: 16.4%
- viability, T/C [13]: 46%
- viability, T/C [14]: 30.1%
- viability, T/C [15]: 22.6%
- viability, T/C [16]: 15.6%
- viability, T/C [17]: 11.7%
- viability, T/C [18]: 10.2%
- viability, T/C [19]: 27.2%
- viability, T/C [20]: 19.1%
- viability, T/C [21]: 13%
- viability, T/C [22]: 9.14%
- viability, T/C [23]: 7.33%
- viability, T/C [24]: 5.95%
- viability, T/C [25]: 11%
- viability, T/C [26]: 7.63%
- viability, T/C [27]: 5.67%
- viability, T/C [28]: 4.44%
- viability, T/C [29]: 4%
- viability, T/C [30]: 1.21%
- viability, T/C [31]: 2.71%
- viability, T/C [32]: 3.19%
- viability, T/C [33]: 2.3%
- viability, T/C [34]: 2.05%
- viability, T/C [35]: 1.56%
- viability, T/C [36]: 0.74%

- pIC50 (second compound 0.0316 µM): 6.81
- pIC50 (second compound 0.1 µM): 7.04
- pIC50 (second compound 0.316 µM): 7.48
- pIC50 (second compound 1 µM): > 7.50
- pIC50 (second compound 3.16 µM): > 7.50
- pIC50 (second compound 10 µM): > 7.50
Structure (SMILES): Cn1ncc(Cl)c1-c1cc(C(=O)NC(CN)Cc2cccc(F)c2)sc1Cl (stereo unspecified) + Cc1nc(NC(=O)N2CCCC2C(N)=O)sc1-c1ccnc(C(C)(C)C(F)(F)F)c1
- viability, T/C [1]: 77.8%
- viability, T/C [2]: 60%
- viability, T/C [3]: 34.2%
- viability, T/C [4]: 20.2%
- viability, T/C [5]: 11.4%
- viability, T/C [6]: 4.55%
- viability, T/C [7]: 71.3%
- viability, T/C [8]: 47.4%
- viability, T/C [9]: 31.6%
- viability, T/C [10]: 17.6%
- viability, T/C [11]: 11.4%
- viability, T/C [12]: 4.51%
- viability, T/C [13]: 50.1%
- viability, T/C [14]: 42.2%
- viability, T/C [15]: 28.9%
- viability, T/C [16]: 16.3%
- viability, T/C [17]: 9.51%
- viability, T/C [18]: 4.96%
- viability, T/C [19]: 32.2%
- viability, T/C [20]: 29.3%
- viability, T/C [21]: 19.2%
- viability, T/C [22]: 12.7%
- viability, T/C [23]: 8.96%
- viability, T/C [24]: 3.93%
- viability, T/C [25]: 13.7%
- viability, T/C [26]: 13.4%
- viability, T/C [27]: 11.3%
- viability, T/C [28]: 8.81%
- viability, T/C [29]: 6.34%
- viability, T/C [30]: 1.66%
- viability, T/C [31]: 3.8%
- viability, T/C [32]: 3.93%
- viability, T/C [33]: 3.32%
- viability, T/C [34]: 2.79%
- viability, T/C [35]: 1.39%
- viability, T/C [36]: 0.18%
